Experimental data from patent US10770169B2, “Method of providing a treatment to a subject based on a dynamic pathway map” (THE REGENTS OF THE UNIVERSITY OF CALIFORNIA, priority 2010, dated 2020).

Test system: panel of 55 breast cancer cell lines
Assay: Cell growth inhibition assay (Cell Titer Glo, 72 h, 9 doses; GI50, TGI, LC50)
Type: cell-based, human
Settings: value is the negative log10 of mol/L

## Oxamflatin
AU565 cell line, censored GI50 values
  GI50: 6.19
BT474 cell line, censored GI50 values
  GI50: 6.57
BT483 cell line, censored GI50 values
  GI50: 6.15
CAMA1 cell line, censored GI50 values
  GI50: 6.27
HCC1143 cell line, censored GI50 values
  GI50: 6.28
HCC1187 cell line, censored GI50 values
  GI50: 6.19
HCC1395 cell line, censored GI50 values
  GI50: 5.64
HCC1419 cell line, censored GI50 values
  GI50: 5.88
HCC1428 cell line, censored GI50 values
  GI50: 6.33
HCC1500 cell line, censored GI50 values
  GI50: 5.98
HCC1806 cell line, censored GI50 values
  GI50: 6.16
HCC1937 cell line, censored GI50 values
  GI50: 5.84
HCC1954 cell line, censored GI50 values
  GI50: 5.81
Cell line AU565
  GI50: 6.19
Cell line BT474
  GI50: 6.57
Cell line BT483
  GI50: 6.15
Cell line CAMA1
  GI50: 6.27
Cell line HCC38
  GI50: 6.77
Cell line HCC70
  GI50: 6.35
Cell line HCC1143
  GI50: 6.28
Cell line HCC1187
  GI50: 6.19
Cell line HCC1395
  GI50: 5.64
Cell line HCC1419
  GI50: 5.88
Cell line HCC1428
  GI50: 6.33
Cell line HCC1500
  GI50: 5.98
Cell line HCC1806
  GI50: 6.16
Cell line HCC1937
  GI50: 5.84
Cell line HCC1954
  GI50: 5.81
Cell line HCC2185
  GI50: 6.46
Cell line HCC3153
  GI50: 5.82
Cell line LY2
  GI50: 5.88
Cell line MDAMB134V
  GI50: 6.18
Cell line MDAMB175V
  GI50: 5.41
Cell line MDAMB361
  GI50: 6.15
Cell line MDAMB415
  GI50: 6.14
Cell line MDAMB453
  GI50: 6.56
Cell line MDAMB468
  GI50: 5.57
Cell line SKBR3
  GI50: 5.96
Cell line SUM52PE
  GI50: 6.22
Cell line SUM149PT
  GI50: 6.17
Cell line SUM159PT
  GI50: 6.50
Cell line SUM185PE
  GI50: 6.51
Cell line SUM225CWN
  GI50: 6.07
Cell line SUM1315MO
  GI50: 5.64
Cell line T47D
  GI50: 6.06
Cell line UACC812
  GI50: 5.71
Cell line ZR75B
  GI50: 6.41
